Data: EP1053750A1, “Use of proteasome-inhibitor for the induction of programmed cell death (apoptosis)” (Max-Planck-Gesellschaft zur Förderung der Wissenschaften …, priority 1999, dated 2000)
Peptide text beside a SMILES is read from it. * marks the point of attachment. Cbz = O=C(OCc1ccccc1)*; OtBu = CC(C)(C)O*

System: chorioallantoic membrane (CAM)
Assay: Chorioallantoic membrane (CAM) assay
Format: in vivo, chick embryo
Conditions: for %CAMs with non-perfused areas: Luconyl Blue injection, positive/total CAMs in parenthesis
Method: All experiments with chick embryos were performed in ovo. After aspiration of 2 ml of eggwhite from the pointed side of the egg, a window was cut into the eggshell on embryonic day 3 or 4 (E3, E4). The eggs were resealed with tape and further incubated until E9. […] Approximately 1 cm^2-pieces of the CAM were then cut out, washed in PBS and fixed in Carnoy's solution. After dehydration and embedding in paraffin, 8 µm sections were cut and stained with an anti-BrdU mouse monoclonal antibody (Boehringer Mannheim, Germany) according to the manufacturer's instructions. Counterstaining of the sections was performed with Gill's hematoxylin (Serva, Heidelberg, Germany). Sections were mounted using Aquamount (Merck, Darmstadt, Germany) and photos were taken with a Zeiss Axiophot microscope. […] Control pellets were prepared with an equal amount of Leupeptin or with DMSO as vehicle, respectively. To aid in the visualization of the vascular system, embryos and CAMs were then injected using pulled glass capillaries with 10% Luconyl Blue (BASF, Ludwigshafen, Germany) in PBS, and photographs were taken using a stereomicroscope with camera adapter.
In eight eggs the windows of the egg shells were enlarged under an operation microscope. After a peripheral incision in the CAM was made, the main artery was incised with a pair of ocular scissors, and a glass capillary (World Precision Instruments, Inc. Germany) pulled to the adequate diameter, was inserted and sealed with a drop of cyanoacrylate (Loctite®). Efflux was enabled by making another incision into a main draining vessel. The vascular system was flushed with up to 5 ml of prewarmed (37 -39°C) physiological saline (0.9% NaCI) under mechanically controlled pressure. […] After complete polymerization of the casting solution, the membranes were dissected and macerated in a solution of 5% potassium hydroxide (Fluka, Neu-Ulm, Germany) at 40°C for 1 - 2 days. The resulting corrosion casts of all specimens were freeze dried, mounted and sputter coated. Examination of the microvascular corrosion casts were carried out with a Stereoscan Mk-250 scanning electron microscope (Cambridge, England). Alternatively, in situ fixed CAM segments were cut out, processed for semi-thin sectioning and stained with methylene blue and Azur II. Selected specimens were trimmed for ultrathin sectioning, and counterstained with uranyl acetate and lead citrate.

Structure (SMILES): CC[C@H](C)[C@H](NC(=O)OCc1ccccc1)C(=O)N[C@@H](CCC(=O)OC(C)(C)C)C(=O)N[C@@H](C)C(=O)N[C@H](C=O)CC(C)C [PSI, carbobenzoxy-L-isoleucyl-y-t-butyl-L-glutamyl-L-alanyl-L-leucinal] (Cbz-IE(OtBu)AL-aldehyde)
- %CAMs with non-perfused areas (0.31 µg/disc, methylcellulose disc on CAM for 48 h): 0(0/10) %
- %CAMs with non-perfused areas (1.0 µg/disc, methylcellulose disc on CAM for 48 h): 56.3 (18/32) %
- %CAMs with non-perfused areas (3.1 µg/disc, methylcellulose disc on CAM for 48 h): 85.7 (12/14) %
- densities of the capillary plexus and first order vessels (corrosion casts) (CAM area directly under the disc): rarified
- TUNEL labeling of cell nuclei in CAM sections (methylcellulose disc on CAM for 48 h, cells in close contact with the disc): Intense labeling
